Values joined by “and” are separate entries in the source; they are usually repeats but may differ in a detail not shown here. Equal values may be shown once. Read-outs that look alike come from different tables or passages of the source.
Tests used:
MDM2 = target: T1, MDM2 (Homo sapiens, UniProt Q00987); experiment: Inhibition test of MDM2-P53 (GST-MDM2, Biotin-P53, Anti-GST-Tb, SA-XL665); format: binding
T1 construct: made in house
Summary of the method: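 HTRF-type assay using 4 nM GST-MDM2 (final), Biotin-P53, SA-XL665 and anti-GST-Tb in PBS with 0.1% BSA, 5 mM DTT and 1 mM AEBSF. Compounds in 5-fold serial dilutions over twelve points; incubation 90 min at 25° C with shaking before plate-reader read-out.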

[1] = Pharmacokinetics in ICR mice after intravenous and intragastric administration; format: in vivo; conditions: for MRT last: read-out: MRT(0-t); for MRT inf: read-out: MRT(0-∞); for Vd: read-out: Vz
Summary of the method: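 Single-dose mouse PK study: i.v. 2 mg/kg and intragastric 5 mg/kg to fasted male ICR mice, three animals per arm. Exposure and disposition parameters (Cmax, Tmax, AUC, t1/2, F, CL, Vz) came from LC-MS/MS plasma levels.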

[2] = test system: human osteosarcoma cell line SJSA-1; experiment: Inhibition of proliferation of human osteosarcoma cell line SJSA-1 (DAPI staining, In Cell Analyzer); conditions: Homo sapiens, SJSA-1, 72 h, read-out: IC50 (nM), inhibitory activity on proliferation of human osteosarcoma cell line SJSA-1, SJSA-1, incubated 72 h
Method: 2.2 Experiment Preparation:
2.2.1 Preparation of a culture medium for human osteosarcoma cell line SJSA-1: RPMI1640+10% FBS+1% penicillin/streptomycin
2.2.2 Preparation of a test compound solution:
a. the test compound solution with a certain concentration was taken, and diluted with the culture medium to obtain a compound solution with a final concentration of 20 μM;
b. 200 μL of a culture medium containing 0.2% DMSO (dimethyl sulfoxide) was added into H2-H10 of a 96-well plate; 300 μl of the above solution was added into H1; and
c. 100 μL was taken out from well H1, added into H2, and mixed well; then 100 μl of the resultant solution was taken and added into H3, and dilution was carried out in sequence until H9 to obtain the 3-fold serial dilution of the test compound.
2.3 Experimental Process:
2.3.1 SJSA-1 cells were inoculated into a 96-well cell plate with black transparent bottom at 4000 cells/100 μl/well, and cultured overnight at 37° C.;
2.3.3 Fixation: the cell plate was taken out, the culture medium was removed, and 50 μL of 4% paraformaldehyde solution was added to each well to fix for 10 min;
2.3.4 50 μl of 0.1 M glycine was added to neutralize for 10 min;
2.3.5 Washing was performed with 1×PBS (phosphate buffer solution pH7.2) twice;
2.3.6 Permeabilization: 50 μL of 0.2% TritonX-100 (Triton) was added per well, and permeabilization was carried out at room temperature for 10 min;
2.3.7 Washing was performed with 1×PBS (phosphate buffer solution pH7.2) twice;
2.3.9 Washing was performed with 1×PBS (phosphate buffer solution pH7.2) for three times; and
2.3.10 Scanning and analysis were performed by In cell analyzer.
The inhibition rate of each compound at each concentration point was calculated according to the following formula, and curve fitting was performed by GraphPad Prism 6.0 software to obtain the IC50 value.

[3] = ICR mice, IV 2 mg/kg, individual animal, 2 mg/kg
[4] = ICR mice, PO 5 mg/kg, individual animal, 5 mg/kg
[5] = male, ICR, mouse, plasma, iv, 2 mg/kg, ICR mice, IV 2 mg/kg, individual animal
[6] = male, ICR, mouse, plasma, iv, 2 mg/kg, ICR mice, IV 2 mg/kg, individual animal, read-out: AUC(0-t)
[7] = male, ICR, mouse, plasma, iv, 2 mg/kg, ICR mice, IV 2 mg/kg, individual animal, read-out: Cmax
[8] = male, ICR, mouse, plasma, iv, 2 mg/kg, ICR mice, IV 2 mg/kg, individual animal, read-out: t1/2 (converted)
[9] = male, ICR, mouse, plasma, iv, 2 mg/kg, ICR mice, IV 2 mg/kg, mean of 3 animals
[10] = male, ICR, mouse, plasma, iv, 2 mg/kg, ICR mice, IV 2 mg/kg, mean of 3 animals, read-out: AUC(0-t)
[11] = male, ICR, mouse, plasma, iv, 2 mg/kg, ICR mice, IV 2 mg/kg, mean of 3 animals, read-out: Cmax
[12] = male, ICR, mouse, plasma, iv, 2 mg/kg, ICR mice, IV 2 mg/kg, mean of 3 animals, read-out: Tmax
[13] = male, ICR, mouse, plasma, iv, 2 mg/kg, ICR mice, IV 2 mg/kg, mean of 3 animals, read-out: t1/2 (converted)
[14] = male, ICR, mouse, plasma, po, 5 mg/kg, ICR mice, PO 5 mg/kg, individual animal
[15] = male, ICR, mouse, plasma, po, 5 mg/kg, ICR mice, PO 5 mg/kg, individual animal, read-out: AUC(0-t)
[16] = male, ICR, mouse, plasma, po, 5 mg/kg, ICR mice, PO 5 mg/kg, individual animal, read-out: Tmax
[17] = male, ICR, mouse, plasma, po, 5 mg/kg, ICR mice, PO 5 mg/kg, individual animal, read-out: t1/2 (converted)
[18] = male, ICR, mouse, plasma, po, 5 mg/kg, ICR mice, PO 5 mg/kg, mean of 3 animals
[19] = male, ICR, mouse, plasma, po, 5 mg/kg, ICR mice, PO 5 mg/kg, mean of 3 animals, read-out: AUC(0-t)
[20] = male, ICR, mouse, plasma, po, 5 mg/kg, ICR mice, PO 5 mg/kg, mean of 3 animals, read-out: Cmax
[21] = male, ICR, mouse, plasma, po, 5 mg/kg, ICR mice, PO 5 mg/kg, mean of 3 animals, read-out: Tmax
[22] = male, ICR, mouse, plasma, po, 5 mg/kg, ICR mice, PO 5 mg/kg, mean of 3 animals, read-out: t1/2 (converted)
[23] = male, ICR, mouse, plasma, po, 5 mg/kg, oral intragastric administration 5 mg/kg, read-out: AUC0-t
[24] = male, ICR, mouse, plasma, po, 5 mg/kg, oral intragastric administration 5 mg/kg, read-out: half-life (converted)
[25] = male, mouse, plasma, ICR mice, PO 5 mg/kg vs IV 2 mg/kg, from mean values, read-out: F* (bioavailability)

T1 sequence (Q00987 whole entry): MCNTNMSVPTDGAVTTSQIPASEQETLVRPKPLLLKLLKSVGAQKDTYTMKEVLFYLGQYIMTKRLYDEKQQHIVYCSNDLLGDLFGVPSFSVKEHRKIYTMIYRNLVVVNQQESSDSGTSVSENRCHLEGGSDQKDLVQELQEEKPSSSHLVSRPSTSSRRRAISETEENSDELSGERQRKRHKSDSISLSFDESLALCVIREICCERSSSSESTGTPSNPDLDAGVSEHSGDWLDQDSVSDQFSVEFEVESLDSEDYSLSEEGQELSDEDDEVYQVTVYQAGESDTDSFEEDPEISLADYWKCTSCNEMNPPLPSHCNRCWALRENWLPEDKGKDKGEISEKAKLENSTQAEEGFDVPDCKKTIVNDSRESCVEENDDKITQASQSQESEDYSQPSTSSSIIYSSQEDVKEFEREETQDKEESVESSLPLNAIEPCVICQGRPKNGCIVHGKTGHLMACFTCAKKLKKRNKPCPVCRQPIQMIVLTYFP

## COc1cc(C(C)C)ccc1-c1nc2c(n1C(C)C)[C@@]1(C(=O)Nc3cc(Cl)ccc31)N(c1cc(Cl)ccc1C)C2=O [Example S-32, (S)-6-chloro-5′-(5-chloro-2-methylphenyl)-3′-isopropyl-2′-(4-isopropyl-2-methoxyphenyl)-3′H-spiro[dihydroindole-3,4′-pyrrolo[3,4-d]imidazole]-2,6′(5′H)-dione]
MDM2
  IC50: 3.89 nM
[1]; [3]
  AUC(0-t): 3859.04 ng·h/mL and 4699.29 ng·h/mL
  AUC(0-∞): 4004.98 ng·h/mL and 4854.66 ng·h/mL
  CL: 8.323 mL/min/kg and 6.8663 mL/min/kg
  Cmax: 1902.13 ng/mL and 2766.01 ng/mL
  MRT(0-t): 1.29 h and 1.32 h
  MRT(0-∞): 1.53 h
  Tmax: 0.50 h and 0.08 h and 0.25 h
  Vz: 0.90833 L/kg and 0.7302 L/kg
  t1/2: 1.26 h and 1.23 h
[1]; [4]
  AUC(0-t): 10704.89 ng·h/mL and 8458.06 ng·h/mL
  AUC(0-∞): 11027.74 ng·h/mL and 9168.53 ng·h/mL
  Cmax: 1578.70 ng/mL and 3356.31 ng/mL and 2518.33 ng/mL
  MRT(0-t): 2.24 h and 2.48 h
  MRT(0-∞): 2.48 h and 3.14 h
  t1/2: 1.51 h and 2.07 h
[1]; [5]
  AUC(0-inf): 7630 ng·h/mL
  clearance: 4.37 mL/min/kg
  MRT last: 1.61 h
  MRT inf: 1.97 h
  Vd: 0.543 L/kg
[1]; [6]
  AUC(0-t): 7200 ng·h/mL
[1]; [7]
  Cmax: 2450 ng/mL
[1]; [8]
  half-life: 1.44 h
[1]; [9]
  AUC(0-inf): 5500 ng·h/mL
  clearance: 6.52 mL/min/kg
  MRT last: 1.41 h
  MRT inf: 1.68 h
  Vd: 0.727 L/kg
[1]; [10]
  AUC(0-t): 5250 ng·h/mL
[1]; [11]
  Cmax: 2370 ng/mL
[1]; [12]
  Tmax: 0.278 h
[1]; [13]
  half-life: 1.31 h
[1]; [14]
  AUC(0-inf): 7100 ng·h/mL
  MRT last: 2.79 h
  MRT inf: 4.22 h
[1]; [15]
  AUC(0-t): 6020 ng·h/mL
[1]; [16]
  Tmax: 1 h
[1]; [17]
  half-life: 2.89 h
[1]; [18]
  AUC(0-inf): 9100 ng·h/mL
  MRT last: 2.5 h
  MRT inf: 3.28 h
[1]; [19]
  AUC(0-t): 8390 ng·h/mL
[1]; [20]
  Cmax: 2480 ng/mL
[1]; [21]
  Tmax: 1 h
[1]; [22]
  half-life: 2.16 h
[1]; [23]
  AUC(0-t): 8390 ng·h/mL
[1]; [24]
  half-life: 2.16 h
[1]; [25]
  bioavailability: 63.9%
[2]
  IC50: 10.1 nM

## COc1ncc(-c2nc3c(n2C(C)C)[C@@]2(C(=O)Nc4cc(Cl)ccc42)N(c2cc(Cl)ccc2F)C3=O)c(OC)n1 [Example S-44, (S)-6-chloro-5′-(5-chloro-2-fluorophenyl)-2′-(2,4-dimethoxypyrimidin-5-yl)-3′-isopropyl-3′H-spiro[dihydroindole-3,4′-pyrrolo[3,4-d]imidazole]-2,6′(5′H)-dione]
MDM2
  IC50: 1.18 nM
[1]; [3]
  AUC(0-t): 2703.63 ng·h/mL and 2987.84 ng·h/mL
  AUC(0-∞): 3052.47 ng·h/mL and 3364.67 ng·h/mL
  CL: 10.92 mL/min/kg and 9.91 mL/min/kg
  Cmax: 826.58 ng/mL and 951.21 ng/mL
  MRT(0-t): 1.82 h
  MRT(0-∞): 2.61 h and 2.56 h
  Vz: 1.82 L/kg and 1.64 L/kg
  t1/2: 1.92 h and 1.91 h
[1]; [4]
  AUC(0-t): 5161.46 ng·h/mL and 6287.89 ng·h/mL
  AUC(0-∞): 5447.83 ng·h/mL and 6556.64 ng·h/mL
  Cmax: 1097.85 ng/mL and 1204.30 ng/mL
  MRT(0-t): 2.81 h and 3.08 h
  MRT(0-∞): 3.22 h and 3.38 h
  Tmax: 2.00 h
  t1/2: 1.77 h and 1.65 h
[1]; [5]
  AUC(0-inf): 2770 ng·h/mL
  clearance: 12.1 mL/min/kg
  MRT last: 1.71 h
  MRT inf: 2.35 h
  Vd: 1.86 L/kg
[1]; [6]
  AUC(0-t): 2510 ng·h/mL
[1]; [7]
  Cmax: 872 ng/mL
[1]; male, ICR, mouse, plasma, iv, 2 mg/kg, ICR mice, IV 2 mg/kg, individual animal, read-out: Tmax
  Tmax: 0.08 h
[1]; [8]
  half-life: 1.79 h
[1]; [9]
  AUC(0-inf): 3060 ng·h/mL
  clearance: 11 mL/min/kg
  MRT last: 1.77 h
  MRT inf: 2.51 h
  Vd: 1.77 L/kg
[1]; [10]
  AUC(0-t): 2730 ng·h/mL
[1]; [11]
  Cmax: 883 ng/mL
[1]; [12]
  Tmax: 0.083 h
[1]; [13]
  half-life: 1.87 h
[1]; [14]
  AUC(0-inf): 8960 ng·h/mL
  MRT last: 3.17 h
  MRT inf: 4.17 h
[1]; [15]
  AUC(0-t): 7900 ng·h/mL
[1]; male, ICR, mouse, plasma, po, 5 mg/kg, ICR mice, PO 5 mg/kg, individual animal, read-out: Cmax
  Cmax: 1360 ng/mL
[1]; [16]
  Tmax: 1 h
[1]; [17]
  half-life: 2.56 h
[1]; [18]
  AUC(0-inf): 6990 ng·h/mL
  MRT last: 3.02 h
  MRT inf: 3.59 h
[1]; [19]
  AUC(0-t): 6450 ng·h/mL
[1]; [20]
  Cmax: 1220 ng/mL
[1]; [21]
  Tmax: 1.33 h
[1]; [22]
  half-life: 2 h
[1]; [23]
  AUC(0-t): 6450 ng·h/mL
[1]; [24]
  half-life: 2 h
[1]; male, ICR, mouse, plasma, oral intragastric administration 5 mg/kg, read-out: bioavailability
  bioavailability: 94.4%
[1]; [25]
  bioavailability: 94.4%
[2]
  IC50: 11.9 nM
